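Where inhibition never reached the appropriate level, the endpoint shown equals the highest concentration tested. Otherwise, values were interpolated linearly from a five-concentration, 48-hour dose response in 96-well plates. GI50: concentration for 50% inhibition of growth.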 Calls of active or inactive are those of the source. Rule as the data show it: active = GI50 up to about 1.1 µM and inactive = higher.
Key:
Test in all cases: NCI anticancer screen, dose series, 48 h
MDA-MB-231 = system: MDA-MB-231
SK-OV-3 = system: SK-OV-3
U-251 = system: U-251
LOX IMVI = system: LOX IMVI
Malme-3M = system: Malme-3M
A549 = system: A549
SF-268 = system: SF-268
SN12C = system: SN12C
OVCAR-3 = system: OVCAR-3
NCI-H522 = system: NCI-H522
HOP-62 = system: HOP-62
A498 = system: A498
SR = system: SR
RPMI-8226 = system: RPMI-8226
HCT-15 = system: HCT-15
IGROV-1 = system: IGROV-1
K562 = system: K562
CAKI-1 = system: CAKI-1
NCI-H460 = system: NCI-H460
HCC 2998 = system: HCC 2998

Structure (SMILES) | GI50 (MDA-MB-231) | GI50 (SK-OV-3) | GI50 (U-251) | GI50 (LOX IMVI) | GI50 (Malme-3M) | GI50 (A549) | GI50 (SF-268) | GI50 (SN12C) | GI50 (OVCAR-3) | GI50 (NCI-H522) | GI50 (HOP-62) | GI50 (A498) | GI50 (SR) | GI50 (RPMI-8226) | GI50 (HCT-15) [µM] | GI50 (IGROV-1) | GI50 (K562) | GI50 (CAKI-1) | GI50 (NCI-H460) | GI50 (HCC 2998)
O=C(NC(CS)C(=O)O)c1cccc2c(=O)c3ccccc3[nH]c12 (configuration not stated) | > 100 µM (inactive) | > 100 µM (inactive) | > 100 µM (inactive) | > 100 µM (inactive) | > 100 µM (inactive) | > 100 µM (inactive) | > 100 µM (inactive) | > 100 µM (inactive) | > 100 µM (inactive) | 47 µM (inactive) | > 100 µM (inactive) | > 100 µM (inactive) | > 100 µM (inactive) | > 100 µM (inactive) | > 100 | > 100 µM (inactive) | > 100 µM (inactive) |  |  | 
N=C1/C(=C/c2ccco2)C(=O)N=C2SC=NN12 | > 100 µM (inactive) | > 100 µM (inactive) | > 100 µM (inactive) | > 100 µM (inactive) | > 100 µM (inactive) | > 100 µM (inactive) | > 100 µM (inactive) | > 100 µM (inactive) | > 100 µM (inactive) | > 100 µM (inactive) | > 100 µM (inactive) |  | > 100 µM (inactive) | > 100 µM (inactive) | > 100 | > 100 µM (inactive) | > 100 µM (inactive) | > 100 µM (inactive) | > 100 µM (inactive) | > 100 µM (inactive)
N#Cc1nc(CCCCCN2C(=O)c3ccccc3C2=O)oc1N | > 100 µM (inactive) | > 100 µM (inactive) | > 100 µM (inactive) | > 100 µM (inactive) | > 100 µM (inactive) | > 100 µM (inactive) | > 100 µM (inactive) | > 100 µM (inactive) | > 100 µM (inactive) | 4.84 µM (inactive) | > 100 µM (inactive) |  | > 100 µM (inactive) | 21.1 µM (inactive) | > 100 | > 100 µM (inactive) | 17 µM (inactive) | > 100 µM (inactive) | > 100 µM (inactive) | 16.3 µM (inactive)
Cc1cccc(Cn2c3c(c4cc(O)ccc42)C(=O)c2ccccc2C3=O)c1 | 6.35 µM (inactive) | 3.44 µM (inactive) | 8.59 µM (inactive) | 12.6 µM (inactive) | 19.1 µM (inactive) | 11.3 µM (inactive) | 36.6 µM (inactive) | > 61 µM (inactive) | > 31.6 µM (inactive) |  | 4.58 µM (inactive) | > 90.8 µM (inactive) | 14.2 µM (inactive) | 5.92 µM (inactive) | 54.7 | 5.13 µM (inactive) | > 100 µM (inactive) | > 26.5 µM (inactive) | 25.6 µM (inactive) | 
O=C1C(Cl)=C(Oc2ccc([N+](=O)[O-])cc2)C(=O)c2c(O)ccc(O)c21 | 28.4 µM (inactive) | > 100 µM (inactive) | > 100 µM (inactive) |  | 18.1 µM (inactive) | > 100 µM (inactive) | > 61.8 µM (inactive) | 98.4 µM (inactive) | 33.6 µM (inactive) | 19.2 µM (inactive) | > 100 µM (inactive) | > 100 µM (inactive) | 3.78 µM (inactive) | 21 µM (inactive) | 25.6 | > 100 µM (inactive) | 13.3 µM (inactive) |  | > 100 µM (inactive) | > 100 µM (inactive)
CCCCOP(=O)(OCCCC)C(NS(=O)(=O)c1ccccc1)(C(=O)OCC)C(F)(F)F (configuration not stated) | 15.3 µM (inactive) | 58.5 µM (inactive) | 34.8 µM (inactive) | 31.4 µM (inactive) | 23.1 µM (inactive) | 42.8 µM (inactive) | 43 µM (inactive) | 29.1 µM (inactive) | 25.1 µM (inactive) |  | 22.7 µM (inactive) | 34.5 µM (inactive) | 26.7 µM (inactive) | 24.5 µM (inactive) | 39.7 | 23.3 µM (inactive) | 20.5 µM (inactive) | 16.4 µM (inactive) | 37.6 µM (inactive) | > 100 µM (inactive)
Nc1nc(-c2ccccc2)c(CC(=O)O)s1 | > 100 µM (inactive) | > 100 µM (inactive) | > 100 µM (inactive) | > 100 µM (inactive) | > 100 µM (inactive) | > 100 µM (inactive) | > 100 µM (inactive) | > 100 µM (inactive) | > 100 µM (inactive) | > 100 µM (inactive) | > 100 µM (inactive) | > 100 µM (inactive) | > 100 µM (inactive) | > 100 µM (inactive) | > 100 | > 100 µM (inactive) | > 100 µM (inactive) | > 100 µM (inactive) | > 100 µM (inactive) | 
CC(C)CCn1c(=O)c2c(=O)[nH][nH]c2c2ccccc21 | > 100 µM (inactive) |  | > 100 µM (inactive) | > 100 µM (inactive) | > 100 µM (inactive) | > 100 µM (inactive) |  | > 100 µM (inactive) | > 100 µM (inactive) | > 100 µM (inactive) | > 100 µM (inactive) | > 100 µM (inactive) | > 100 µM (inactive) | > 100 µM (inactive) | > 100 | > 100 µM (inactive) | > 100 µM (inactive) |  | > 100 µM (inactive) | > 100 µM (inactive)
O=C1C2SC34c5c2c2ccccc2n5CCC3CCCN14 (configuration not stated) | 39.6 µM (inactive) | > 100 µM (inactive) | 33.9 µM (inactive) | > 100 µM (inactive) | > 100 µM (inactive) | > 100 µM (inactive) | 39.4 µM (inactive) | > 100 µM (inactive) | 65 µM (inactive) | 56.8 µM (inactive) | 31.8 µM (inactive) | > 100 µM (inactive) | > 100 µM (inactive) | > 100 µM (inactive) | > 100 | 80.7 µM (inactive) | > 100 µM (inactive) | 48.4 µM (inactive) |  | 
COC(=O)[C@@]12CCCC(=O)[C@@H]1[C@H]1CCC[C@H]12 | > 100 µM (inactive) | > 100 µM (inactive) | > 100 µM (inactive) | > 100 µM (inactive) | > 100 µM (inactive) | > 100 µM (inactive) | > 100 µM (inactive) | > 100 µM (inactive) | > 100 µM (inactive) | > 100 µM (inactive) | > 100 µM (inactive) |  | > 100 µM (inactive) | > 100 µM (inactive) | > 100 | > 100 µM (inactive) | > 100 µM (inactive) | > 100 µM (inactive) | > 100 µM (inactive) | > 100 µM (inactive)
Nc1ccc(/N=N\c2ccc(-c3ccc(O)cc3)cc2)c2ccc(S(=O)(=O)O)cc12 | > 100 µM (inactive) | > 100 µM (inactive) | > 100 µM (inactive) | > 100 µM (inactive) | > 100 µM (inactive) | > 100 µM (inactive) | > 100 µM (inactive) | > 100 µM (inactive) | > 100 µM (inactive) | > 100 µM (inactive) | > 100 µM (inactive) | > 100 µM (inactive) | > 100 µM (inactive) | > 100 µM (inactive) | > 100 | > 100 µM (inactive) | > 100 µM (inactive) | > 100 µM (inactive) | > 100 µM (inactive) | 

From ChEMBL document CHEMBL1201862, “PubChem BioAssay data set” (2004)
